“Also recorded” adds a separate entry of the source. Like-named read-outs stand apart in the source and are kept apart here.
Legend:
U251 glioma cells = assay: Autophagy (vacuoles), U251; type: cell-based
From the text: (§1) Concentration-dependent conversion of LC3-I to LC3-II confirms the increasing phenomenon of autophagy in these cells.

MDA-MB-231 cells = assay: SRB cell proliferation assay, MDA-MB-231; type: cell-based; details: Homo sapiens
Protocol: (§2) Cell proliferation was assessed using the sulforhodamine B (SRB) assay. Cells seeded in 96-well plate (2,000-3,000 cell/well) were treated with MPL (0, 1, 5, 10, 25, 50 and 100 μmol/L) for 72 h. Cells were then fixed, washed and stained with 100 μl of 0.4% (w/v) SRB dissolved in 1% acetic acid. Unbound dye was removed by five washes with 1% acetic acid before air drying. Bound SRB was solubilized with 100 μl of 10 mM Tris base (pH 10.5) and the absorbance read at 570 nm. Exactly the same procedure was used to assess MPL-SO2. Both agents were dissolved in ethanol and diluted with media to give the final concentrations required for cell culture assays.

OVCAR-3 or A2780 cells = assay: Colony formation assay; type: cell-based, human
Protocol: FIG. 2A, FIG. 2B, and FIG. 2C show the effect of MPL on the colony formation activity of OVCAR-3 cells. Following incubation of cells with MPL (0, 5, 10 and 25 μmol/L) for 72 hours, cells were washed, transferred to agar plates, cultured with their regular growth medium and incubated under standard conditions for 2 weeks. Cells were then fixed with 100% methanol and stained with 1% crystal violet. Colonies (a cluster of cells greater than 50) were counted under a microscope (magnification ×5). The number of colonies counted for different experimental groups is expressed as a percentage of the control.
Following incubation of cells with MPL (0, 5, 10, 25 μM) for 72 h, cells were washed and then transferred to agar plates, cultured with their regular growth medium and incubated under standard conditions for 2 weeks. Cells were then fixed with 100% methanol and stained with 1% crystal violet. Colonies (cluster of cells greater than 50) were counted under microscope (magnification ×5). Number of colonies counted for different experimental groups is expressed as % of control.
For colony formation assay, […], such as OVCAR-3 or A2780 cells, were plated in 100 mm Petri dishes and allowed to attach overnight. […] Colonies consisting of more than 50 cells were counted under an inverted microscope. […]

[1] = tested on: mTOR signaling in s.c. grown OVCAR-3 tumors; assay: Western blot of tumor lysates, mTOR related signaling; type: in vivo, female nude mice
Protocol: Western blot analysis of tumor lysates prepared from s.c. grown OVCAR-3 tumors in female nude mice. Mice were treated from day 8 post cell inoculation i.p. for 3 weeks with MPL (25, 50 mg/kg suspended in 0.5% HPMC given i.p.) or the vehicle (0.5% HPMC). 24 hours after the last dose, tumors were excised and frozen at −80° C. […] Protein expression of mTOR together with c-Myc, cyclins D1 and E2 and CDKs 2 and 4 were suppressed in tumors excised from MPL treated mice.
Female nude mice (6 weeks old) were purchased from Biological Resources (Faculty of Medicine, University of New South Wales). An institutional animal ethics approval covered all procedures carried out on mice. Briefly, 2.5×10^6 log-phase growing OVCAR-3 cells were injected s.c. into the left flank of each mouse. Animals were weighed once weekly while their tumor volumes were determined twice weekly. Tumor growth was monitored by caliper measurements of orthogonal diameters, and the estimated tumor volume was calculated based on the formula ½ (Length×Width^2), where width is the shorter of the two orthogonal measurements. Based on institutional ethics approval, mice were euthanized before the tumor volume reached 500 mm^3. Treatment was initiated on day 8 after tumor cell injection when mice were randomized and assigned to treatment or the control group (6 per group). […]

mTOR and p70S6K = assay: Western blot of mTOR and p70S6K phosphorylation in OVCAR-3 cells; type: cell-based, human; details: 10 μM MPL for 1, 4 or 24 hours
Protocol: Western blot analysis of cell lysates prepared from OVCAR-3 cells treated with 10 μM MPL for 1, 4 or 24 hours under cell culture conditions.

OVCAR-3 cells = assay: SRB cell proliferation assay, OVCAR-3; type: cell-based, human
Protocol: as §2

U87 glioma cells = assay: Autophagy (vacuoles, LC3-II), U87; type: cell-based; details: chemo-resistant U87 glioma cells, concentration-dependent
From the text: Autophagy is a characteristic of mTOR inhibition.
as §1

[2] = tested on: HUVEC (human umbilical vein endothelial cells); assay: SRB cell proliferation assay, HUVEC; type: cell-based
Protocol: as §2

c-Myc and cyclin D1 = assay: Western blot of c-Myc and cyclin D1 in OVCAR-3 cells; type: cell-based, human; details: 0, 5, 10, 15 and 25 μM MPL for 48 hours
Protocol: In further experiments, after treatment with the indicated concentrations of MPL, cell lysates were prepared and probed with antibodies for c-Myc, cyclin D1, cyclin E, cdk2, cdk4, IGF-1R (Cell Signalling Technology), and (anta Cruz Biotechnology, Australia).

[3] = tested on: PC-3 prostate cancer cells; assay: SRB cell proliferation assay, PC-3; type: cell-based
Protocol: as §2

C[C@](C#N)(COc1cc(C#N)ccc1C(F)(F)F)NC(=O)c1ccc(SC(F)(F)F)cc1 [MPL, N-[(1S)-1-Cyano-2-(5-cyano-2-trifluoromethyl-phenoxy)-1-methyl-ethyl]-4-trifluoromethylsulfanyl-benzamide]
formation of autophagy (vacuoles) (U251 glioma cells): concentration-dependent formation of autophagy
IC50 (MDA-MB-231 cells; MDA-MB-231, breast cancer (Table 2), read-out: IC50 in suppressing proliferation): 23.8 ± 0.2 µM
IC50 (MDA-MB-231 cells; MDA-MB-231, breast cancer, 72 h, SRB assay (Table 1), read-out: IC50): 24 µM
colony formation (OVCAR-3 or A2780 cells; 72 h exposure (0, 5, 10, 25 μM), then 2 weeks drug free): profoundly hinders colony formation; also recorded: concentration-dependent inhibition of colony formation
clonogenic ability at higher concentrations (OVCAR-3 or A2780 cells; higher concentrations of MPL, 72 h exposure): almost complete loss of clonogenic ability
tumor mTOR signaling (Western blot) ([1]; 25, 50 mg/kg i.p. for 3 weeks, tumors excised 24 hours after last dose): suppression of mTOR signaling
tumor expression of cyclin D1 ([1]; MPL treated tumor bearing mice): dramatic down-regulation of cyclin D1
phosphorylation [activation] of mTOR and p70S6K (mTOR and p70S6K): inhibition of phosphorylation
IC50 (OVCAR-3 cells; Homo sapiens, OVCAR-3, ovarian cancer, 72 h in vitro treatment, SRB assay (Table 1), read-out: IC50): 6.3 µM
IC50 (OVCAR-3 cells; OVCAR-3, human epithelial ovarian cancer (Table 3), read-out: IC50 μM OVCAR-3): 7.9 ± 0.9 µM
potency of MPL-(R) compared with MPL-(S) (OVCAR-3 cells; results of Table 3): equipotent
expression of LC3-II (autophagy) (U87 glioma cells): increased expression of LC3-II
IC50 ([2]; HUVEC = human umbilical vein endothelial cells (Table 3), read-out: IC50 μM HUVEC): 65 µM
IC50 ([2]; Homo sapiens, HUVEC (Table 2), read-out: IC50 in suppressing proliferation): 87 µM
IC50 ([2]; Homo sapiens, HUVEC, 72 h, SRB assay (Table 1), read-out: IC50): 87.8 µM
c-Myc and cyclin D1 expression (c-Myc and cyclin D1): down-regulation of c-Myc and cyclin D1 expression
IC50 ([3]; PC-3, prostate cancer (Table 2), read-out: IC50 in suppressing proliferation): 21 µM
IC50 ([3]; PC-3, prostate cancer, 72 h, SRB assay (Table 1), read-out: IC50): 21.6 µM
effect on PC-3 cells ([3]; chemo-resistant, androgen insensitive PC-3): very effective

From patent publication US10053422B2, “Compounds for the treatment of mTOR pathway related diseases” (Pitney Pharmaceuticals Pty Limited, priority 2012, dated 2018)
